Experiments:
Ba/F3 ERBB2 YVMA = Ba/F3 ERBB2 YVMA (Homo sapiens, UniProt P04626, DUP772-775, cells depend on it); assay: Cell viability assay (CellTiter Glo), Ba/F3 cells engineered to express ERBB2 YVMA; type: cell-based, mouse; details: Ba/F3 cells expressing human ERBB2 YVMA mutant, 72 hours, read-out: Ba/F3 ERBB2 YVMA, IC50
Protocol: Cells were treated with compounds, and cell viability was measured as a metric of kinase inhibition.
BT-474, A431, MDA-MB-175VII, NCI-H1781, MCF7, and Ba/F3 cell lines were tested. The Ba/F3 cell line is IL-3-dependent mouse cell line derived from the C3H mouse strain. Ba/F3 cell lines were engineered to express human ERBB2 or EGFR kinases, rendering the cells IL-3 independent. The lines were generated via retroviral transduction utilizing a Moloney murine leukemia virus (MMLV) promoter, and constructs are stably integrated into the cell genome. The sequences of the ERBB2 and EGFR genes used were NCBI Reference Sequences NM_004448.3 and NM_005228.3, respectively.
BT-474, A431, MDA-MB-175VII, NCI-H1781 and MCF7 cells were grown in the appropriate growth medium as described in Table B2 below, and harvested at 50-80% confluence. BT-474, A431, MDA-MB-175VII, NCI-H1781 and MCF7 cells were counted and seeded at 2,000 or 1,500 cells per well in 384-well tissue culture plates (see Table B2). Similarly, Ba/F3 cell lines engineered to express EGFR, ERBB2, or ERBB2 mutants were grown, harvested, counted and seeded at 3000 cells per well in 96-well plates. A subset of wells contained media only (low control, “LC”).
Table B1 provides the growth media and number of cells seeded per well for the each cell line.
Compounds were dissolved in DMSO and serially diluted. Serially-diluted compound or a DMSO only control (high control, “HC”) was added to the plated cells in each well. Compounds were tested at concentrations of about 10 μM to 0.51 nM, using three-fold dilutions. The final proportion of DMSO never exceeded 0.1%.
Plates were placed in a 37° C., 5% CO2 incubator for 72 hours. Plates were then removed from the incubator and equilibrated for 15 minutes at room temperature. 40 μl of CellTiter Glo reagent (Promega) was added to measure the relative level of metabolically active cells by quantifying intracellular ATP concentrations. Plates were incubated for 30 minutes at room temperature, and luminescence was measured. Percent viability was normalized to a vehicle control only using the following formula: % viability=100×(Lumsample−LumLC)/(LumHC−LumLC). Graphical curves were fitted using a nonlinear regression model with a sigmoidal dose response.

[1] = biological target: T1, phosphorylated ERBB2 (pERBB2) (Homo sapiens, UniProt P04626); assay: Detection of phosphorylated ERBB2 (pERBB2) by ELISA in BT-474 cells; type: cell-based; details: four hour incubation
T1 construct: endogenous in cells; host or cells: BT-474
In short: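 BT-474 cells were treated with compounds (fourfold dilutions, 10 μM to 0.01 nM final) for 4 h at 37 °C, then lysed. pERBB2 in lysates was quantified by ELISA with an HRP anti-phosphotyrosine detection antibody and TMB read at 450 nm; % relative activity was normalized to no-cell and 0.1% DMSO controls.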

[2] = biological target: T2, phosphorylated EGFR (pEGFR) (Homo sapiens, UniProt P00533); assay: Detection of phosphorylated EGFR (pEGFR) by AlphaLISA in EGF-stimulated A431 cells; type: cell-based; details: A431 cells (10% FBS), 4 hours incubation, EGF 30 ng/mL for 10 minutes
T2 construct: performed to measure phosphorylated EGFR levels using A431 cells (10% FBS); endogenous in cells; host or cells: A431
In short: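 A431 cells in 10% FBS were preincubated with compound for 4 h at 37 °C, then stimulated with 30 ng/mL EGF for 10 min and lysed. pEGFR read by AlphaLISA. % inhibition normalised to DMSO and staurosporine controls; IC50 from four-parameter curve fit.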

T1 sequence (P04626 23-1255): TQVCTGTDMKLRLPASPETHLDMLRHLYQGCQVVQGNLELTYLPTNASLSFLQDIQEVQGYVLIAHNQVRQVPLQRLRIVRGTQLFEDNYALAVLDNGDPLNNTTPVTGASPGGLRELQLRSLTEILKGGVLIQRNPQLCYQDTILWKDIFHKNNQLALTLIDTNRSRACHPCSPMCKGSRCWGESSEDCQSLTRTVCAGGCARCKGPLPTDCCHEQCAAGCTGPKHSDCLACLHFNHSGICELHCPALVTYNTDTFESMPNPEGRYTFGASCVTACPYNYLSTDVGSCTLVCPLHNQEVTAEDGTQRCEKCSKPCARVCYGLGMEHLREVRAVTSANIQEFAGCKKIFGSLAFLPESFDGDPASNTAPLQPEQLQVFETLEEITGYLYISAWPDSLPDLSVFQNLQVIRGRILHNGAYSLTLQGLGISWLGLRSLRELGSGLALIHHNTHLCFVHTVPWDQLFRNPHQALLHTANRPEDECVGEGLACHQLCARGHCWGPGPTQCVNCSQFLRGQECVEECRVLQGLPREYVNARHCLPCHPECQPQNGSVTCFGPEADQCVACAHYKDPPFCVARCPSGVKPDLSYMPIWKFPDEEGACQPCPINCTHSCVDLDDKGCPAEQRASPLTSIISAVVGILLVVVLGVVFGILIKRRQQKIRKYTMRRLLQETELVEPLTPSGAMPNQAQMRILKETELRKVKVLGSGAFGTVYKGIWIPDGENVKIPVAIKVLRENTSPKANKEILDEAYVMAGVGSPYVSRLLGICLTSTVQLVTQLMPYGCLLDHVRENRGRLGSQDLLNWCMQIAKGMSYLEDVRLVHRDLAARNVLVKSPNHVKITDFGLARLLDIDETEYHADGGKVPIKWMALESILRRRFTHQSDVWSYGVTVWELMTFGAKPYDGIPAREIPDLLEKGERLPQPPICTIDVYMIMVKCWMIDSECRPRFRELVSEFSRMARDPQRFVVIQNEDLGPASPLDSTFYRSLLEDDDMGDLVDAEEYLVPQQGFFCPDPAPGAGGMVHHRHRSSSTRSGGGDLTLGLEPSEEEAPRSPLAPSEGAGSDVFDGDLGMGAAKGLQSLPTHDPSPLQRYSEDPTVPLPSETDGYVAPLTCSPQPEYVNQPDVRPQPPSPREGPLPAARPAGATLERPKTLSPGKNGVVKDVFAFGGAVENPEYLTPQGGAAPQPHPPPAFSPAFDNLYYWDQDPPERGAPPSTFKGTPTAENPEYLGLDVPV
T2 sequence (P00533 25-1210): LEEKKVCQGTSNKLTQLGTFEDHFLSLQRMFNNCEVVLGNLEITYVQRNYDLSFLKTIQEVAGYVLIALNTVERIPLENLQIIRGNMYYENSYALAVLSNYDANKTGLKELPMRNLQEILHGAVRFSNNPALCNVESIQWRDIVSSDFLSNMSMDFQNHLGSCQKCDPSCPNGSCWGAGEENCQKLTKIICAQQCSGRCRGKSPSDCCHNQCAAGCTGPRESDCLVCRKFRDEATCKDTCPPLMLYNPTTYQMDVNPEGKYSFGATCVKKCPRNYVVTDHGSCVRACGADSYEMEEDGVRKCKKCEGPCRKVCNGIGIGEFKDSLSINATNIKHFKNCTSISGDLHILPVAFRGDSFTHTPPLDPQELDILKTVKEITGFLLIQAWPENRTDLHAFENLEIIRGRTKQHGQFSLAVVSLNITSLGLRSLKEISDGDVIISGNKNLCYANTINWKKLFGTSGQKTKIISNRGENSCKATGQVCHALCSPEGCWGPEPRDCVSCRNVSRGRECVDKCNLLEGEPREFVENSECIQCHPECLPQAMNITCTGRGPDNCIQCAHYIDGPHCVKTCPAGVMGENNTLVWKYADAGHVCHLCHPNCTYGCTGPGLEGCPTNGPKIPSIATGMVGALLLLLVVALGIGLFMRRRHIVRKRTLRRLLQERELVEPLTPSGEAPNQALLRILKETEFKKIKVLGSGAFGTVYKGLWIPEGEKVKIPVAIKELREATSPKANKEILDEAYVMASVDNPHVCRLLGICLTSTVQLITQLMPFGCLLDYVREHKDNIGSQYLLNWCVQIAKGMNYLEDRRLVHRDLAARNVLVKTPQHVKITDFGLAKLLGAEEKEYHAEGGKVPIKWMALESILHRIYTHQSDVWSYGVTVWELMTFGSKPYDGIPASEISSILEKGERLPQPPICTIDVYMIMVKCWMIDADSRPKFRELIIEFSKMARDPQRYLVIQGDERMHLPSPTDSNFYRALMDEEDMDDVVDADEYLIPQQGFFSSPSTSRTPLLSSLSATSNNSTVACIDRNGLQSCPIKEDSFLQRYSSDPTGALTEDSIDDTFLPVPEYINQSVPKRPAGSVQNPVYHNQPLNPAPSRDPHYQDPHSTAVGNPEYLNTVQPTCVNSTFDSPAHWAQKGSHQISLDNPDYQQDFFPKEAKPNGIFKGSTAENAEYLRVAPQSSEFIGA
Chain of Ba/F3 ERBB2 YVMA (P04626 with tags, fused parts or gaps DUP772-775): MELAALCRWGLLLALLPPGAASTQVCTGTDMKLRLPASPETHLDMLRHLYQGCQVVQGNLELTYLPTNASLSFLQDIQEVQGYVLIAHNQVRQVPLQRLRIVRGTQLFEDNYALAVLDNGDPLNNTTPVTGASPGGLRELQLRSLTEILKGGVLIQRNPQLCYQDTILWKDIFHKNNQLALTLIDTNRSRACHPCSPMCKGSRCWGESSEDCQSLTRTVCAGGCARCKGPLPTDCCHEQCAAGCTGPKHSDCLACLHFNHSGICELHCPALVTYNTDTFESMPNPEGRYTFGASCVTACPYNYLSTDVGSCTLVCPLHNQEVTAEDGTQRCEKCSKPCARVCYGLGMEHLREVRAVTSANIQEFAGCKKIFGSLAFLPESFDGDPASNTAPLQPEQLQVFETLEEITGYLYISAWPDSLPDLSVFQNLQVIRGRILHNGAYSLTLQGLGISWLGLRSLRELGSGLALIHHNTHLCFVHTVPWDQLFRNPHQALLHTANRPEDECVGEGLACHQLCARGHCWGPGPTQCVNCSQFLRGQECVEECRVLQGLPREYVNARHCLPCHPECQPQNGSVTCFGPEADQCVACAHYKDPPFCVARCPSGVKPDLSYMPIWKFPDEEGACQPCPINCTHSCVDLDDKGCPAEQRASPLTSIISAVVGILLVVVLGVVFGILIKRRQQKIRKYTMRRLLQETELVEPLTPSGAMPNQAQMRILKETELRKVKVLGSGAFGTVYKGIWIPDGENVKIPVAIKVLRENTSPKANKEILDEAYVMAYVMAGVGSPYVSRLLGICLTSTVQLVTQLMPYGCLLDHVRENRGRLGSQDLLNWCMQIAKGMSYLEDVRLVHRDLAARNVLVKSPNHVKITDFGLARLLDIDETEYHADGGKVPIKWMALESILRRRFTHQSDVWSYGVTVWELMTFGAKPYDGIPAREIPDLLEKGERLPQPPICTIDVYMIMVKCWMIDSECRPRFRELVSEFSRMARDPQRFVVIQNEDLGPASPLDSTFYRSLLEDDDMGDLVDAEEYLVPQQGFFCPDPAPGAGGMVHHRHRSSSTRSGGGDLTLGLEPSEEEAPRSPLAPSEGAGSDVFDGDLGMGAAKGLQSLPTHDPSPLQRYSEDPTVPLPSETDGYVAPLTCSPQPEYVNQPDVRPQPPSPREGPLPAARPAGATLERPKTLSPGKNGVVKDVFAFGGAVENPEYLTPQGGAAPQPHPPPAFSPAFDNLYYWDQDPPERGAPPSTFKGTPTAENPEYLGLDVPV

| IC50 [1] [nM] | IC50 [2] [nM] | Compound | GI50 (Ba/F3 ERBB2 YVMA) [nM] |
| --- | --- | --- | --- |
| 56.1 | > 10000 | Cc1cc(Nc2ncnc3cnc4c(c23)O[C@@H]2CCNC[C@H]2N4C)ccc1Oc1ccc2c(c1)ncn2C [Compound 135, (7aR,11aR)-7-methyl-N-(3-methyl-4-((1-methyl-1H-benzo[d]imidazol-5-yl)oxy)phenyl)-7a,8,9,10,11,11a-hexahydro-7H-pyrido[4,3-b]pyrimido[5′,4′:4,5]pyrido[2,3-e][1,4]oxazin-1-amine] | 88.9 |
| – | > 10000 | Cc1cc(Nc2ncnc3ccc4c(c23)O[C@@H]2CCN(C)C[C@@H]2N4C)ccc1Oc1ccc2c(c1)ncn2C [Compound 123, (7aS,11aR)-7,9-dimethyl-N-(3-methyl-4-((1-methyl-1H-benzo[d]imidazol-5-yl)oxy)phenyl)-7a,8,9,10,11,11a-hexahydro-7H-pyrido[3′,4′:5,6][1,4]oxazino[2,3-f]quinazolin-1-amine] | 46.4 |
| 13 | 254 | CC#CC(=O)N1CCN2c3cc4c(Nc5ccc(Oc6ccn7ncnc7c6)c(C)c5)ncnc4cc3OC[C@@H]2C1 [Compound 13, (S)-1-(11-((4-([1,2,4]triazolo[1,5-a]pyridin-7-yloxy)-3-methylphenyl)amino)-1,2,4a,5-tetrahydropyrazino[1′,2′:4,5][1,4]oxazino[3,2-g]quinazolin-3(4H)-yl)but-2-yn-1-one] | 6.24 |
| 27.5 | 150 | C=CC(=O)N1CCN2c3ccc4ncnc(Nc5ccc(Oc6ccc7c(c6)ncn7C)c(C)c5)c4c3OC[C@H]2C1 [Compound 20, (R)-1-(4-((3-methyl-4-((1-methyl-1H-benzo[d]imidazol-5-yl)oxy)phenyl)amino)-6a,7,9,10-tetrahydropyrazino[1′,2′:4,5][1,4]oxazino[2,3-f]quinazolin-8(6H)-yl)prop-2-en-1-one] | 19.7 |
| 8.97 | 421 | C=CC(=O)N1CCN2c3nc4c(Nc5ccc(Oc6ccn7ncnc7c6)c(C)c5)ncnc4cc3OC[C@H]2C1 [Compound 2, (R)-1-(11-((4-([1,2,4]triazolo[1,5-a]pyridin-7-yloxy)-3-methylphenyl)amino)-1,2,4a,5-tetrahydropyrazino[1,2-d]pyrimido[4′,5′:5,6]pyrido[3,2-b][1,4]oxazin-3(4H)-yl)prop-2-en-1-one] | 4.54 |
| 63 | > 10000 | Cc1cc(Nc2ncnc3ccc4c(c23)O[C@@H]2CCN(C)C[C@H]2N4C)ccc1Oc1ccc2c(c1)ncn2C (relative stereo) [Compound 124, trans-7,9-dimethyl-N-(3-methyl-4-((1-methyl-1H-benzo[d]imidazol-5-yl)oxy)phenyl)-7a,8,9,10,11,11a-hexahydro-7H-pyrido[3′,4′:5,6][1,4]oxazino[2,3-f]quinazolin-1-amine] | 93.7 |
| 18.1 | 308 | Cc1c(Oc2ccn3ncnc3c2)ccc(Nc2ncnc3ccc4c(c23)OC[C@@H]2CN(C(=O)/C=C/CN(C)C)CCN42)c1F [Compound 93, (S,E)-1-(4-((4-([1,2,4]triazolo[1,5-a]pyridin-7-yloxy)-2-fluoro-3-methylphenyl)amino)-6a,7,9,10-tetrahydropyrazino[1′,2′:4,5][1,4]oxazino[2,3-f]quinazolin-8(6H)-yl)-4-(dimethylamino)but-2-en-1-one] | 7.75 |
| 18.1 | 643 | C=CC(=O)N1CCN2c3nc4c(Nc5ccc(Oc6ccc7c(c6)ncn7C)c(C)c5)ncnc4cc3OC[C@H]2C1 [Compound 8, (R)-1-(11-((3-methyl-4-((1-methyl-1H-benzo[d]imidazol-5-yl)oxy)phenyl)amino)-1,2,4a,5-tetrahydropyrazino[1,2-d]pyrimido[4′,5′:5,6]pyrido[3,2-b][1,4]oxazin-3(4H)-yl)prop-2-en-1-one] | 13.3 |
| 240 | > 10000 | Cc1cc(Nc2ncnc3ccc4c(c23)OC[C@H]2CN(C(=O)/C=C/CN(C)C)CCN42)ccc1Oc1ccn2ncnc2c1 [Compound 18, (R,E)-1-(4-((4-([1,2,4]triazolo[1,5-a]pyridin-7-yloxy)-3-methylphenyl)amino)-6a,7,9,10-tetrahydropyrazino[1′,2′:4,5][1,4]oxazino[2,3-f]quinazolin-8(6H)-yl)-4-(dimethylamino)but-2-en-1-one] | 223 |
| 30.7 | 2930 | C=CC(=O)N1CCN2C[C@@H]1COc1c2ccc2ncnc(Nc3ccc(Oc4ccc5c(c4)ncn5C)c(C)c3)c12 [Compound 29, 1-((3R)-13-((3-methyl-4-((1-methyl-1H-benzo[d]imidazol-5-yl)oxy)phenyl)amino)-2,3,5,6-tetrahydro-4H-3,7-methano[1,4,7]oxadiazonino[2,3-f]quinazolin-4-yl)prop-2-en-1-one] | 23.9 |
| 17.3 | 344 | Cc1cc(Nc2ncnc3cnc4c(c23)OC[C@H]2CN4CCN2C(=O)/C=C/CN(C)C)c(F)cc1Oc1ccn2ncnc2c1 [Compound 83, (E)-1-((3R)-13-((4-([1,2,4]triazolo[1,5-a]pyridin-7-yloxy)-2-fluoro-5-methylphenyl)amino)-2,3,5,6-tetrahydro-4H-3,7-methanopyrimido[5′,4′:4,5]pyrido[3,2-b][1,4,7]oxadiazonin-4-yl)-4-(dimethylamino)but-2-en-1-one] | 14 |
| 6.93 | 284 | Cc1cc(Nc2ncnc3cc4c(nc23)N2CCN(C(=O)/C=C/CN(C)C)C[C@@H]2CO4)ccc1Oc1ccn2ncnc2c1 [Compound 15, (R,E)-1-(11-((4-([1,2,4]triazolo[1,5-a]pyridin-7-yloxy)-3-methylphenyl)amino)-1,2,4a,5-tetrahydropyrazino[1,2-d]pyrimido[4′,5′:5,6]pyrido[3,2-b][1,4]oxazin-3(4H)-yl)-4-(dimethylamino)but-2-en-1-one] | 4.89 |
| 304 | > 10000 | Cc1cc(Nc2ncnc3ccc4c(c23)OC[C@@H]2CN4CCN2C(=O)/C=C/CN(C)C)ccc1Oc1ccc2c(c1)ncn2C [Compound 30, (E)-4-(dimethylamino)-1-((3S)-13-((3-methyl-4-((1-methyl-1H-benzo[d]imidazol-5-yl)oxy)phenyl)amino)-2,3,5,6-tetrahydro-4H-3,7-methano[1,4,7]oxadiazonino[2,3-f]quinazolin-4-yl)but-2-en-1-one] | > 500 |
| 219 | > 10000 | Cc1cc(Nc2ncnc3ccc4c(c23)OC[C@H]2CN4CCN2C)ccc1Oc1ccn2ncnc2c1 [Compound 52, (3R)—N-(4-([1,2,4]triazolo[1,5-a]pyridin-7-yloxy)-3-methylphenyl)-4-methyl-3,4,5,6-tetrahydro-2H-3,7-methano[1,4,7]oxadiazonino[2,3-f]quinazolin-13-amine] | > 500 |
| 25 | 3120 | CN(C)C/C=C/C(=O)N1CCN2c3ccc4ncnc(Nc5ccc(Oc6ccn7ncnc7c6)c(F)c5)c4c3OC[C@H]2C1 [Compound 118, (R,E)-1-(4-((4-([1,2,4]triazolo[1,5-a]pyridin-7-yloxy)-3-fluorophenyl)amino)-6a,7,9,10-tetrahydropyrazino[1′,2′:4,5][1,4]oxazino[2,3-f]quinazolin-8(6H)-yl)-4-(dimethylamino)but-2-en-1-one] | 35.7 |
| – | > 10000 | Cc1cc(Nc2ncnc3ccc4c(c23)O[C@@H]2CCN(C)C[C@@H]2N4C)ccc1Oc1ccc2c(c1)ncn2C [Compound 129, (7aS,11aR)-7,9-dimethyl-N-(3-methyl-4-((1-methyl-1H-benzo[d]imidazol-5-yl)oxy)phenyl)-7a,8,9,10,11,11a-hexahydro-7H-pyrido[3′,4′:5,6][1,4]oxazino[2,3-f]quinazolin-1-amine] | 111 |

From patent publication US20260078135A1, “POLYCYCLIC QUINAZOLINES FOR INHIBITION OF ERBB2” (Enliven Inc., priority 2022, published 2026)
